Results published in the supplement of paper PMC8617591.

Key:
[1] = system: Mycobacterium tuberculosis Erdman (autoluminescent); assay: total FIC50 (Loewe) at 50% inhibition, three-drug combination (log2); higher = more antagonistic
Experimental: (§1)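 DiaMOND equipotent three-drug combination dose responses (10 doses, 1.5- or 2-fold spacing, centred on IC90) against autoluminescent M. tuberculosis Erdman in 8 in vitro models. Read-out is OD600, or luminescence for the intracellular and dormancy models, normalised to untreated wells. Hill-fit Einf, AUC25 and GRinf are potency metrics; FIC50 and FIC90 are total Loewe fractional inhibitory concentrations as log2 (negative = synergy).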

[2] = system: Mycobacterium tuberculosis Erdman (autoluminescent); assay: total FIC90 (Loewe) at 90% inhibition, three-drug combination (log2); higher = more antagonistic
Experimental: as §1

[3] = system: Mycobacterium tuberculosis Erdman (autoluminescent); assay: Einf, fitted maximum growth inhibition of three-drug combination (fraction); higher = stronger maximal inhibition
Experimental: as §1

[4] = system: Mycobacterium tuberculosis Erdman (autoluminescent); assay: AUC25, normalised area under dose response up to IC25 (three-drug combination) (fraction (0-1)); higher = more potent at low dose
Experimental: as §1

[5] = system: Mycobacterium tuberculosis Erdman (autoluminescent); assay: GRinf, maximum normalised growth rate inhibition (three-drug combination) (unitless (-1 to 1)); higher = less effect (negative = killing)
Experimental: as §1

CC[C@@H](CO)NCCN[C@@H](CC)CO [ethambutol] + O=[N+]([O-])c1cn2c(n1)OC[C@@H](OCc1ccc(OC(F)(F)F)cc1)C2 [pretomanid] + CO[C@H]1/C=C/O[C@@]2(C)Oc3c(C)c(O)c4c(O)c(c(/C=N/N5CCN(C6CCCC6)CC5)c(O)c4c3C2=O)NC(=O)/C(C)=C\C=C\[C@H](C)[C@H](O)[C@@H](C)[C@@H](O)[C@@H](C)[C@H](OC(C)=O)[C@@H]1C [rifapentine]
Details	AUC25, [4]	Einf, [3]	GRinf, [5]	total FIC50, [1]	total FIC90, [2]
in vitro model: acidic pH 5.7, time point: constant (~7 days, model-specific)	0.109	0.881	-0.167	-0.27	–
in vitro model: acidic pH 5.7, time point: terminal (~4-5 doublings, model-specific)	0.0593	0.965	-0.136	-0.17	-0.213
in vitro model: intracellular J774, time point: constant = terminal	–	0.983	-0.509	–	-1.96

Details	AUC25, [4]	Einf, [3]	GRinf, [5]	total FIC50, [1]	total FIC90, [2]
in vitro model: butyrate, time point: constant (~7 days, model-specific)	0.0719	0.917	0.00142	0.274	–
in vitro model: butyrate, time point: terminal (~4-5 doublings, model-specific)	0.0544	0.96	0.0016	0.212	-0.372
in vitro model: cholesterol 0.05 mM, time point: constant (~7 days, model-specific)	0.103	0.743	-0.355	0.946	–
in vitro model: cholesterol 0.05 mM, time point: terminal (~4-5 doublings, model-specific)	0.0797	0.923	-0.204	1.14	–
in vitro model: cholesterol-high 0.2 mM, time point: constant (~7 days, model-specific)	0.0331	0.825	-0.056	1.15	–
in vitro model: cholesterol-high 0.2 mM, time point: terminal (~4-5 doublings, model-specific)	0.0353	1	-0.701	1.34	1.42
in vitro model: dormancy (butyrate + nitrate, low O2), time point: constant (~7 days, model-specific)	0.115	0.832	0.245	0.472	–
in vitro model: dormancy (butyrate + nitrate, low O2), time point: terminal (~4-5 doublings, model-specific)	0.0993	0.964	-0.137	0.154	0.383
in vitro model: standard 7H9 glycerol, time point: constant = terminal	0.0595	0.912	0.0905	0.054	–
in vitro model: valerate, time point: constant (~7 days, model-specific)	0.0932	0.882	-0.0094	0.185	–
in vitro model: valerate, time point: terminal (~4-5 doublings, model-specific)	0.0526	0.938	0.0245	0.593	0.229

CC[C@@H](CO)NCCN[C@@H](CC)CO [ethambutol] + O=[N+]([O-])c1cn2c(n1)OC[C@@H](OCc1ccc(OC(F)(F)F)cc1)C2 [pretomanid] + CO[C@H]1/C=C/O[C@@]2(C)Oc3c(C)c(O)c4c(O)c(c(/C=N/N5CCN(C)CC5)c(O)c4c3C2=O)NC(=O)/C(C)=C\C=C\[C@H](C)[C@H](O)[C@@H](C)[C@@H](O)[C@@H](C)[C@H](OC(C)=O)[C@@H]1C [rifampicin]
Details	AUC25, [4]	Einf, [3]	GRinf, [5]	total FIC50, [1]	total FIC90, [2]
in vitro model: acidic pH 5.7, time point: constant (~7 days, model-specific)	0.116	0.896	-0.0878	-0.207	–
in vitro model: acidic pH 5.7, time point: terminal (~4-5 doublings, model-specific)	0.0422	0.965	-0.0884	-0.118	-0.7
in vitro model: intracellular J774, time point: constant = terminal	–	0.979	-0.423	–	-2.45

Details	AUC25, [4]	Einf, [3]	GRinf, [5]	total FIC50, [1]	total FIC90, [2]
in vitro model: butyrate, time point: constant (~7 days, model-specific)	0.0766	0.908	0.0166	0.153	–
in vitro model: butyrate, time point: terminal (~4-5 doublings, model-specific)	0.075	0.968	-0.0125	-0.0702	-0.43
in vitro model: cholesterol 0.05 mM, time point: constant (~7 days, model-specific)	0.123	0.753	-0.232	0.599	–
in vitro model: cholesterol 0.05 mM, time point: terminal (~4-5 doublings, model-specific)	0.0708	0.852	0.216	0.863	–
in vitro model: cholesterol-high 0.2 mM, time point: constant (~7 days, model-specific)	0.0614	0.857	-0.0797	1.05	–
in vitro model: cholesterol-high 0.2 mM, time point: terminal (~4-5 doublings, model-specific)	0.0471	0.992	-0.568	1.06	0.833
in vitro model: dormancy (butyrate + nitrate, low O2), time point: constant (~7 days, model-specific)	0.102	0.883	0.315	-0.71	–
in vitro model: dormancy (butyrate + nitrate, low O2), time point: terminal (~4-5 doublings, model-specific)	0.085	0.993	-0.16	-0.599	-0.673
in vitro model: standard 7H9 glycerol, time point: constant = terminal	0.0649	0.919	0.0317	-0.222	–
in vitro model: valerate, time point: constant (~7 days, model-specific)	0.0577	0.876	0.0174	0.363	–
in vitro model: valerate, time point: terminal (~4-5 doublings, model-specific)	0.033	0.931	0.0322	0.443	-0.575

CC[C@@H](CO)NCCN[C@@H](CC)CO [ethambutol] + O=[N+]([O-])c1cn2c(n1)OC[C@@H](OCc1ccc(OC(F)(F)F)cc1)C2 [pretomanid] + NC(=O)c1cnccn1 [pyrazinamide]
Details	AUC25, [4]	Einf, [3]	GRinf, [5]	total FIC50, [1]	total FIC90, [2]
in vitro model: acidic pH 5.7, time point: constant (~7 days, model-specific)	0.122	0.735	-0.0977	-0.536	–
in vitro model: acidic pH 5.7, time point: terminal (~4-5 doublings, model-specific)	0.091	0.962	-0.384	0.211	-1.13
in vitro model: intracellular J774, time point: constant = terminal	–	0.983	-0.544	–	-0.753

Details	AUC25, [4]	Einf, [3]	GRinf, [5]	total FIC50, [1]	total FIC90, [2]
in vitro model: butyrate, time point: constant (~7 days, model-specific)	0.0885	0.898	0.0512	0.0336	–
in vitro model: butyrate, time point: terminal (~4-5 doublings, model-specific)	0.0789	0.949	0.0472	0.0804	0.185
in vitro model: cholesterol 0.05 mM, time point: constant (~7 days, model-specific)	0.13	0.709	-0.334	–	–
in vitro model: cholesterol 0.05 mM, time point: terminal (~4-5 doublings, model-specific)	0.129	0.723	-0.277	0.522	–
in vitro model: cholesterol-high 0.2 mM, time point: constant (~7 days, model-specific)	0.0837	0.876	-0.121	0.648	–
in vitro model: cholesterol-high 0.2 mM, time point: terminal (~4-5 doublings, model-specific)	0.0682	0.992	-0.572	0.65	1.05
in vitro model: dormancy (butyrate + nitrate, low O2), time point: constant (~7 days, model-specific)	0.127	0.844	0.4	-0.415	–
in vitro model: dormancy (butyrate + nitrate, low O2), time point: terminal (~4-5 doublings, model-specific)	0.11	0.967	-0.312	0.312	1.35
in vitro model: standard 7H9 glycerol, time point: constant = terminal	0.0755	0.913	0.125	0.461	–
in vitro model: valerate, time point: constant (~7 days, model-specific)	0.0698	0.882	0.0142	-0.111	–
in vitro model: valerate, time point: terminal (~4-5 doublings, model-specific)	0.0514	0.919	0.0593	0.0754	-0.361

NNC(=O)c1ccncc1 [isoniazid] + CC(=O)NC[C@H]1CN(c2ccc(N3CCOCC3)c(F)c2)C(=O)O1 [linezolid] + CO[C@H]1/C=C/O[C@@]2(C)Oc3c(C)c(O)c4c(O)c(c(/C=N/N5CCN(C6CCCC6)CC5)c(O)c4c3C2=O)NC(=O)/C(C)=C\C=C\[C@H](C)[C@H](O)[C@@H](C)[C@@H](O)[C@@H](C)[C@H](OC(C)=O)[C@@H]1C [rifapentine]
Details	AUC25, [4]	Einf, [3]	GRinf, [5]	total FIC50, [1]	total FIC90, [2]
in vitro model: acidic pH 5.7, time point: constant (~7 days, model-specific)	0.0908	0.853	-0.0954	0.653	–
in vitro model: acidic pH 5.7, time point: terminal (~4-5 doublings, model-specific)	0.0757	0.977	-0.138	0.526	0.636
in vitro model: intracellular J774, time point: constant = terminal	–	0.946	-0.138	–	0.00443

Details	AUC25, [4]	Einf, [3]	GRinf, [5]	total FIC50, [1]	total FIC90, [2]
in vitro model: butyrate, time point: constant (~7 days, model-specific)	0.0823	0.894	0.1	0.461	1.07
in vitro model: butyrate, time point: terminal (~4-5 doublings, model-specific)	0.0501	0.94	0.0909	0.377	0.0682
in vitro model: cholesterol 0.05 mM, time point: constant (~7 days, model-specific)	0.153	0.735	-0.233	0.774	–
in vitro model: cholesterol 0.05 mM, time point: terminal (~4-5 doublings, model-specific)	0.125	0.921	-0.273	0.542	0.792
in vitro model: cholesterol-high 0.2 mM, time point: constant (~7 days, model-specific)	0.0853	0.833	-0.0945	0.52	–
in vitro model: cholesterol-high 0.2 mM, time point: terminal (~4-5 doublings, model-specific)	0.093	1	-0.883	0.739	0.834
in vitro model: dormancy (butyrate + nitrate, low O2), time point: constant (~7 days, model-specific)	0.0503	0.879	0.222	1.15	0.705
in vitro model: dormancy (butyrate + nitrate, low O2), time point: terminal (~4-5 doublings, model-specific)	0.0276	0.984	-0.167	0.72	0.385
in vitro model: standard 7H9 glycerol, time point: constant = terminal	0.0681	0.902	0.155	0.53	1.15
in vitro model: valerate, time point: constant (~7 days, model-specific)	0.0749	0.839	0.0814	0.038	–
in vitro model: valerate, time point: terminal (~4-5 doublings, model-specific)	0.0444	0.931	0.0271	0.299	0.267

NNC(=O)c1ccncc1 [isoniazid] + CC(=O)NC[C@H]1CN(c2ccc(N3CCOCC3)c(F)c2)C(=O)O1 [linezolid] + CO[C@H]1/C=C/O[C@@]2(C)Oc3c(C)c(O)c4c(O)c(c(/C=N/N5CCN(C)CC5)c(O)c4c3C2=O)NC(=O)/C(C)=C\C=C\[C@H](C)[C@H](O)[C@@H](C)[C@@H](O)[C@@H](C)[C@H](OC(C)=O)[C@@H]1C [rifampicin]
Details	AUC25, [4]	Einf, [3]	GRinf, [5]	total FIC50, [1]	total FIC90, [2]
in vitro model: acidic pH 5.7, time point: constant (~7 days, model-specific)	0.073	0.841	-0.0845	0.571	–
in vitro model: acidic pH 5.7, time point: terminal (~4-5 doublings, model-specific)	0.0682	0.972	-0.116	0.505	0.335
in vitro model: intracellular J774, time point: constant = terminal	–	0.947	-0.188	–	-0.141

Details	AUC25, [4]	Einf, [3]	GRinf, [5]	total FIC50, [1]	total FIC90, [2]
in vitro model: butyrate, time point: constant (~7 days, model-specific)	0.0943	0.915	0.0298	0.353	0.315
in vitro model: butyrate, time point: terminal (~4-5 doublings, model-specific)	0.0727	0.958	0.0122	0.184	0.0301
in vitro model: cholesterol 0.05 mM, time point: constant (~7 days, model-specific)	0.139	0.691	-0.14	0.356	–
in vitro model: cholesterol 0.05 mM, time point: terminal (~4-5 doublings, model-specific)	0.135	0.916	-0.324	4.8	-0.269
in vitro model: cholesterol-high 0.2 mM, time point: constant (~7 days, model-specific)	0.11	0.956	-0.355	0.569	–
in vitro model: cholesterol-high 0.2 mM, time point: terminal (~4-5 doublings, model-specific)	0.0902	0.997	-0.919	0.831	0.809
in vitro model: dormancy (butyrate + nitrate, low O2), time point: constant (~7 days, model-specific)	0.0701	0.891	0.192	0.857	0.12
in vitro model: dormancy (butyrate + nitrate, low O2), time point: terminal (~4-5 doublings, model-specific)	0.036	0.978	-0.111	0.231	0.0283
in vitro model: standard 7H9 glycerol, time point: constant = terminal	0.0756	0.899	0.148	0.299	-0.589
in vitro model: valerate, time point: constant (~7 days, model-specific)	0.0594	0.862	0.0129	0.491	–
in vitro model: valerate, time point: terminal (~4-5 doublings, model-specific)	0.035	0.934	0.0126	0.502	0.221
